Values of other authors, collected in patent publication US6214381A, “Methazolamide composition and method of use” (Effcon, Inc., priority 1998, dated 2001).

Conditions: background statement

water solubility: water-insoluble
Compound: CC(=O)N=c1sc(S(N)(=O)=O)nn1C [Methazolamide, methazolamide]
